Literature values in US9301906B2, “Dentrifice composition” (Kao Corporation, priority 2011, dated 2016).

| solubility in 100 g of an aqueous solution at 20° C. | SMILES |
| --- | --- |
| 36 g in 100 g of an aqueous solution | OC[C@@H](O)[C@@H](O)CO [erythritol] |
| 60 g in 100 g of an aqueous solution | OC[C@@H](O)[C@@H](O[C@H]1O[C@H](CO)[C@@H](O)[C@H](O)[C@H]1O)[C@H](O)[C@@H](O)CO [maltitol] |
| 18 g in 100 g of an aqueous solution | OC[C@@H](O)[C@@H](O)[C@H](O)[C@H](O)CO [mannitol] |
| 72 g in 100 g of an aqueous solution | OC[C@@H](O)[C@@H](O)[C@H](O)[C@@H](O)CO [sorbitol] |
| 66 g in 100 g of an aqueous solution | OC[C@@H](O)[C@H](O)[C@@H](O)CO [xylitol] |
